According to paper PMC10691770, “Inhibition of Parkinson’s disease–related LRRK2 by type I and type II kinase inhibitors: Activity and structures” (Science Advances, 2023):

Tests used:
[1] = system: LRRK2(WT) and LRRK2(G2019S); parameters: method as in PMID 34515301; details: cited from earlier work
[2] = LRRK2-IN-1 ref 18; HG-10-102-01 ref 19; cited from earlier work
[3] = molecular target: T1, LRRK2^RCKW (Homo sapiens, UniProt Q5S007); assay: MS-based kinase activity assay (Rab8A phosphorylation); assay type: biochemical; details: 50 nM LRRK2^RCKW, 5 μM Rab8A, 1 mM ATP, ESI-MS readout
T1 construct: His6-Z (TEV site) (N, cleaved yes); made in house; host or cells: Sf9 insect cells (baculovirus)
T1 sequence (Q5S007 1327-2527): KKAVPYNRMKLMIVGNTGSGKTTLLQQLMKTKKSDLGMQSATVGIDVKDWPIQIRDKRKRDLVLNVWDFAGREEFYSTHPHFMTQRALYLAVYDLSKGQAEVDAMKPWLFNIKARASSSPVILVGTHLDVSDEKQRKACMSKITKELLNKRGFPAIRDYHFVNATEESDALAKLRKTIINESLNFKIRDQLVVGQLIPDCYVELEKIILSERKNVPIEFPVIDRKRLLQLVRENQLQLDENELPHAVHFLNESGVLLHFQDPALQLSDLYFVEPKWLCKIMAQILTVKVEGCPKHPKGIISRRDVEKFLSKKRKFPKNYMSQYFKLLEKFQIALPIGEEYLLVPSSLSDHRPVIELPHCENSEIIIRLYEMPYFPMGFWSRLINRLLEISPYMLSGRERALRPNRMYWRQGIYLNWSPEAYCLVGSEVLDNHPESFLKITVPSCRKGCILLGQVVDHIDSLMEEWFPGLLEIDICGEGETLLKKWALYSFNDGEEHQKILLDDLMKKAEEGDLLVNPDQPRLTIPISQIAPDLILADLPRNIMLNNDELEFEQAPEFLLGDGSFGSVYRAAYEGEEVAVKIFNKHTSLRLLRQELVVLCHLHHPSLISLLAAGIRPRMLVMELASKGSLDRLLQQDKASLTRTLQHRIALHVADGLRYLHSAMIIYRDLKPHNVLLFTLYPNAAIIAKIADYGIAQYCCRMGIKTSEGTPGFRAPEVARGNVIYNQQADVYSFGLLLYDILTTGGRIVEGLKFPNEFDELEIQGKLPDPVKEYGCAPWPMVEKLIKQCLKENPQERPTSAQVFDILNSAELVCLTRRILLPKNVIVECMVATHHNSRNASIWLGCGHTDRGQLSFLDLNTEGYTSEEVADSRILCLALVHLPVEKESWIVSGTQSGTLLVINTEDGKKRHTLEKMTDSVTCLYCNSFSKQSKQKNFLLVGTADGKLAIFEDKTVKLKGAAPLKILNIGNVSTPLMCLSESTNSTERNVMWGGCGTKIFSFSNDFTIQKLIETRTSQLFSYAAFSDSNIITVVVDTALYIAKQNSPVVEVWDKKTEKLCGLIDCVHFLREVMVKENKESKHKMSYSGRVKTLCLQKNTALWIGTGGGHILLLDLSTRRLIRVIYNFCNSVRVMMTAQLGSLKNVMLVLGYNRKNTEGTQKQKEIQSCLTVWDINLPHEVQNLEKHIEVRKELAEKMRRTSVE
From the text: To compare the activity of the selected LRRK2 inhibitors, we developed a mass spectrometry (MS)–based kinase activity assay using an established endogenous substrate. We subjected the Rab8A GTPase domain (residues 6 to 176) to LRRK2^RCKW phosphorylation in the presence of varying concentrations of a given inhibitor and directly quantified the amount of phosphorylated Rab8A (pRab8A) by ESI-MS (fig. S1C).
To determine the IC50 values for a set of LRRK2 inhibitors, the phosphorylation of the LRRK2 substrate Rab8A was assessed by applying an MS-based activity assay. LRRK2^RCKW protein (50 nM) was mixed with 5 μM substrate and varying concentrations of the inhibitors in assay buffer [20 mM Hepes (pH 7.4), 150 mM NaCl, 0.5 mM TCEP, 20 μM GDP, 2.5 mM MgCl2, and 0.5% glycerol]. The reaction was started by adding 1 mM ATP and incubated at room temperature (RT). […] Data were acquired using the MassHunter LC/MS Data Acquisition software and analyzed using the BioConfirm vB.08.00 tool (both Agilent Technology) (https://www.agilent.com/en/product/software-informatics/mass-spectrometry-software, RRID: SCR_016657). The peak intensities of the unphosphorylated and phosphorylated Rab8A species were quantified and the relative kinase activity was calculated. […]

[4] = system: LRRK2^KW (G2019S); assay: Differential scanning fluorimetry (DSF) thermal shift assay, G2019S mutant; assay type: binding; details: inhibitor 10 μM
Method: The assay was performed according to a previously established protocol ([37]). Briefly, a solution of 4 μM LRRK2^KW protein in assay buffer [20 mM Hepes (pH 7.4), 150 mM NaCl, 0.5 mM Tris (2-carboxyethyl) phosphine (TCEP), 20 μM GDP, 2.5 mM MgCl2, and 0.5% glycerol] was mixed 1:1000 with SYPRO Orange (Sigma-Aldrich). The inhibitors to be tested were added to a final concentration of 10 μM. Twenty microliters of each sample were placed in a 96-well plate and heated gradually from 25° to 95°C. Fluorescence was monitored using an MX3005P real-time PCR instrument (Stratagene) with excitation and emission filters set to 465 and 590 nm, respectively. Data were analyzed with the MxPro software.

In the case of `Cc1ccc(C(=O)Nc2ccc(CN3CCN(C)CC3)c(C(F)(F)F)c2)cc1C#Cc1cnc2[nH]ncc2c1` [GZD-824], the “IC50 for LRRK2(WT) lower than that for LRRK2(G2019S)” value ([1]; in vitro phosphorylation assay) is listed as ~ 4 fold.
In the case of `CNc1nc(Nc2ccc(C(=O)N3CCOCC3)cc2OC)ncc1Cl` [HG-10-102-01], the brain penetrance [2] is listed as “brain penetrant”.
For `COc1cc(C(=O)N2CCC(N3CCN(C)CC3)CC2)ccc1Nc1ncc2c(n1)N(C)c1ccccc1C(=O)N2C` [LRRK2-IN-1], the “IC50 (inhibition of Rab8A phosphorylation), in words” value [3] is given as “high nanomolar range” and the brain penetrance [2] is given as “low brain penetrance”.
In the case of `CC1CN(c2cc(-c3n[nH]c4ccc(OC5(C)CC5)cc34)ncn2)CC(C)O1` (stereo not drawn) [MLi-2], the ΔTM [4] is listed as 18 K and the “inhibition of LRRK2(G2019S) better than LRRK2(WT)” value ([1]; purified full-length LRRK2, in vitro assay with a peptide kinase substrate) is listed as ~ 2 fold.
